Experimental data reported in patent US20230212138A1, “PHD INHIBITOR COMPOUNDS, COMPOSITIONS, AND THEIR USE” (Akebia Therapeutics, Inc., priority 2020, published 2023).

What was measured:
Format in all cases: biochemical
full-length human PHD3 = target: T1, full-length human PHD3 (Homo sapiens, UniProt Q9H6Z9); experiment: TR-FRET assay, PHD3 enzymatic IC50; settings: 35 nM PHD3, 1 μM 2-OG
T1 construct: It was expressed in E. coli as the full-length protein; 6-His (N); purchased Active Motif 81033; host or cells: E. coli
T1 sequence (Q9H6Z9 whole entry): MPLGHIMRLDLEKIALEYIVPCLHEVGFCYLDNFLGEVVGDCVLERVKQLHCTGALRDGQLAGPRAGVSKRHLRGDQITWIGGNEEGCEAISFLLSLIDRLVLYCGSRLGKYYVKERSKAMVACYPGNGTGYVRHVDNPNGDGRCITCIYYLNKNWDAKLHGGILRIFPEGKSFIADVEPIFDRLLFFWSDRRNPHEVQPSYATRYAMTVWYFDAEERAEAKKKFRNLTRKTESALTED
Source text: (§1) In the presence of 2-oxoglutarate and O2, PHD enzyme hydroxylates proline 564 of biotin-tagged HIF-1α peptide resulting in generation of biotin-tagged HIF-1α-hydroxyproline, succinate and CO2. The resulting proximity of the donor fluorophore complex, monoclonal antibody anti-6His-Terbium (Tb)-cryptate Gold, bound to the His-tagged VHL protein, EloB, EloC complex (His-VBC) and the acceptor fluorophore, SA-D2 complex, bound to HIF-1α-hydroxyproline results in a fluorescence resonance energy transfer signal that can be detected and quantified
(§2) Time-resolved fluorescence resonance energy transfer (TR-FRET) assay was utilized to determine the enzymatic half maximal inhibitory concentration (IC50) value of PHD inhibitors against the full-length human prolyl-4-hydroxylase domain (PHD) enzymes, PHD1, PHD2, and PHD3. The TR-FRET assay was developed based on the specific binding of hydroxylated HIF-1α peptide with the complex formed by VHL, EloB and EloC (VBC), to generate a fluorescent signal. Terbium (Tb)-Donor (monoclonal antibody anti-6His-Tb-cryptate Gold) and D2-acceptor (streptavidin [SA]-D2) of TR-FRET are linked to the VBC complex and to HIF-1α peptide, respectively. The VBC complex binds specifically to the HIF-1α peptide when it is hydroxylated, allowing energy transfer from TR-FRET donor to acceptor (FIG. 1).
Recombinant human PHD3 protein (molecular weight 31.1 kDa) was purchased from Active Motif (Carlsbad, Calif., USA). It was expressed in E. coli as the full-length protein (NCBI accession number NP_071356.1) with an N-terminal 6-His tag (catalog #81033, Lot #24417001).
(§3) PHD inhibitor compound was preincubated with PHD enzyme in a 10 μL reaction volume in white 384-well Optiplate microplates (catalog #6007290, Perkin Elmer, Waltham, Mass., USA). For this, 5 μL PHD inhibitor compound was serially diluted with dilution buffer (50 mM HEPES [4-(2-hydroxyethyl)-1-piperazineethanesulfonic acid] pH 7.5, 50 mM sodium chloride [NaCl], 0.01% Tween-20, 0.01% purified bovine serum albumin [BSA]) and mixed with 5 μL PHD enzyme mix prepared as a 4× concentrate in the dilution buffer containing PHD enzyme (60 nM PHD1, 20 nM PHD2, 140 nM PHD3), 40 μM ferrous ammonium sulfate (FAS), 4 mM sodium (Na) ascorbate. The plates were incubated for 30 minutes at room temperature without rotation.
(§4) Five microliters of the VBC/anti-6His-Tb-cryptate Gold mix prepared as a 4×concentrate in dilution buffer containing 20 nM His-VBC, 1.32 nM monoclonal antibody anti-6His-Tb-cryptate Gold was then added. This step was followed immediately by the addition of 5 μL of the HIF-1α C35 substrate mix prepared as a 4×concentrate in the dilution buffer containing 120 nM biotin-labeled HIF-1α C35, 132 nM SA-D2, 4 μM 2-oxoglutarate (2-OG) to reach a final reaction volume of 20 μL.
(§5) The final assay reaction contained 50 mM HEPES, pH 7.5, 50 mM NaCl, 1 μM 2-OG, 10 μM FAS, 1 mM Na ascorbate, 0.01% Tween-20, 0.01% purified BSA, 30 nM biotin-labeled HIF-1α C35, 5 nM His-VBC, 0.33 nM monoclonal antibody anti-6His-Tb-cryptate Gold, 33 nM SA-D2 and PHD enzyme (15 nM PHD1, 5 nM PHD2, or 35 nM PHD3) with the diluted compound.
(§6) For the measurement of the IC50 of PHD inhibitor compound, reactions were incubated for 10 minutes at room temperature and then read on a Perkin Elmer EnVision (Waltham, Mass., USA) at an excitation wavelength of 340 nm and at emission wavelengths of 615 nm and 665 nm. The data represent the quotient of the signal intensity at 665 nm and 615 nm, automatically calculated by Envision Manager software (Perkin Elmer, Waltham, Mass., USA). The IC50 values (mean, standard deviation, standard error of the mean, geometric mean and 95% confidence interval) were determined using a four-parameter curve-fit using GraphPad Prism 7.0 (GraphPad, La Jolla, Calif., USA) and represent the compound concentration plotted against the calculated ratio of 665 nm and 615 nm. […]

full-length human PHD2 = target: T2, full-length human PHD2 (Homo sapiens, UniProt Q9GZT9); experiment: TR-FRET assay, PHD2 enzymatic IC50; settings: 5 nM PHD2, 1 μM 2-OG
T2 construct: The PHD2 construct contained amino acids 1 to 426 of PHD2; His tag (N, cleaved yes); TEV protease cleavage site (N, cleaved yes); host or cells: Sf9 insect cells (baculovirus)
T2 sequence (Q9GZT9 whole entry, the tested form may be a part): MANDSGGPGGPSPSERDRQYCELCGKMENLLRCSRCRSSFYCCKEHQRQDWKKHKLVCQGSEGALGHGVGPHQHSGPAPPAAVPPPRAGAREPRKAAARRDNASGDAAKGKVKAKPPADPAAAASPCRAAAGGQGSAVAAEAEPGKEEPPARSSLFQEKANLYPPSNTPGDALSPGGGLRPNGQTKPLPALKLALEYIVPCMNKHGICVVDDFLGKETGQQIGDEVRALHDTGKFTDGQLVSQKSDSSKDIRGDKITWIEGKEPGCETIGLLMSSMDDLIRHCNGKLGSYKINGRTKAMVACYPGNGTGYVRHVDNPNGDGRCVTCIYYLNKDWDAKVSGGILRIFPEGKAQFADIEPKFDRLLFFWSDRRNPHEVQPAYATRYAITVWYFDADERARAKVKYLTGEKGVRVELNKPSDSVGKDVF
Source text: as §1, §2
The full-length human PHD2 enzyme was produced with a baculovirus infected insect cell (BIIC) expression system by Beryllium (Bedford, Mass., USA). The PHD2 construct contained amino acids 1 to 426 of PHD2 (UniProt Knowledgebase[UniProtKB]/Swiss-Prot accession number Q9GZT9.1), and a His tag and a Tobacco Etch Virus (TEV) protease cleavage site at the N-terminus. The construct was expressed in Sf9 insect cells, purified by Ni-NTA column and digested with TEV protease to remove the His tag.
as §3, §4, §5
For the measurement of the IC50 of PHD inhibitor compound, reactions were incubated for 10 minutes at room temperature and then read on a Perkin Elmer EnVision (Waltham, Mass., USA) at an excitation wavelength of 340 nm and at emission wavelengths of 615 nm and 665 nm. The data represent the quotient of the signal intensity at 665 nm and 615 nm, automatically calculated by Envision Manager software (Perkin Elmer, Waltham, Mass., USA). […]

full-length human PHD1 = target: T3, full-length human PHD1 (Homo sapiens, UniProt Q96KS0); experiment: TR-FRET assay, PHD1 enzymatic IC50; settings: 15 nM PHD1, 1 μM 2-OG
T3 construct: expressed in a baculovirus expression system as the full-length protein; FLAG (N); purchased Active Motif 81064; host or cells: baculovirus expression system
T3 sequence (Q96KS0 whole entry): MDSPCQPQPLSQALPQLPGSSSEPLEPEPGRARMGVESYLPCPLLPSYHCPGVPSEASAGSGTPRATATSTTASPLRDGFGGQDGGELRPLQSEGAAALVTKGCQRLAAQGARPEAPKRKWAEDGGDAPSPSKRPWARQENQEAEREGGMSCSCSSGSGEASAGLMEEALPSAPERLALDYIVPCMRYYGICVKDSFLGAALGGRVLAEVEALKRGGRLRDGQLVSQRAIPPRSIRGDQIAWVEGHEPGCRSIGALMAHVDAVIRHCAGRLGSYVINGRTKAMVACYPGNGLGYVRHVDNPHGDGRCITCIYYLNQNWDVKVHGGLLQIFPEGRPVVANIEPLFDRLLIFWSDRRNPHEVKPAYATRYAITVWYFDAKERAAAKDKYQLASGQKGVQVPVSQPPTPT
Source text: as §1, §2
Recombinant human PHD1 protein (catalog #81064, Lot #24717001) was purchased from Active Motif (Carlsbad, Calif., USA). PHD1 was expressed in a baculovirus expression system as the full-length protein (NCBI accession number NP_542770.2) with an N-terminal FLAG tag (molecular weight 44.9 kDa). Purity (>90%) was assessed by SDS-PAGE.
as §3, §4, §5, §6

COc1cc(-c2cnn(-c3ccc(S(C)(=O)=O)cn3)c2O)ccn1 [Compound 8, 4-(2-methoxypyridin-4-yl)-1-(5-(methylsulfonyl)pyridin-2-yl)-1H-pyrazol-5-ol]
IC50 (full-length human PHD3): 100 to 1000 nM
IC50 (full-length human PHD2): < 100 nM
IC50 (full-length human PHD1): < 100 nM

CS(=N)(=O)c1ccc(-n2ncc(-c3ccc(C#N)cc3)c2O)nc1 (stereo not shown) [Compound 26, 4-(5-hydroxy-1-(5-(S-methylsulfonimidoyl)pyridin-2-yl)-1H-pyrazol-4-yl)benzonitrile]
IC50 (full-length human PHD2): < 100 nM
IC50 (full-length human PHD1): < 100 nM

N#Cc1ccc(-c2cnn(-c3ccc(-c4ncco4)cn3)c2O)cc1 [Compound 11, 4-(5-hydroxy-1-(5-(oxazol-2-yl)pyridin-2-yl)-1H-pyrazol-4-yl)benzonitrile]
IC50 (full-length human PHD3): 100 to 1000 nM
IC50 (full-length human PHD2): < 100 nM
IC50 (full-length human PHD1): < 100 nM

Cc1cc(C#N)ccc1-c1cnn(-c2ncc(S(C)(=O)=O)cc2Cl)c1O [Compound 32, 4-(1-(3-chloro-5-(methylsulfonyl)pyridin-2-yl)-5-hydroxy-1H-pyrazol-4-yl)-3-methylbenzonitrile]
IC50 (full-length human PHD2): ≥ 10000 nM
IC50 (full-length human PHD1): ≥ 10000 nM

CC(=O)NS(=O)(=O)c1ccc(-n2ncc(-c3ccc(C#N)cc3)c2O)nc1 [Compound 29, N-((6-(4-(4-cyanophenyl)-5-hydroxy-1H-pyrazol-1-yl)pyridin-3-yl)sulfonyl)acetamide]
IC50 (full-length human PHD2): < 100 nM
IC50 (full-length human PHD1): < 100 nM

CC(C)C(=O)c1ccc(-n2ncc(-c3ccc(C#N)cc3)c2O)nc1 [Compound 3, 4-(5-hydroxy-1-(5-isobutyrylpyridin-2-yl)-1H-pyrazol-4-yl)benzonitrile]
IC50 (full-length human PHD3): < 100 nM
IC50 (full-length human PHD2): < 100 nM
IC50 (full-length human PHD1): < 100 nM

N#Cc1ccc(-c2cnn(-c3ccc(N4CCCC4=O)cn3)c2O)cc1 [Compound 15, 4-(5-hydroxy-1-(5-(2-oxopyrrolidin-1-yl)pyridin-2-yl)-1H-pyrazol-4-yl)benzonitrile]
IC50 (full-length human PHD3): < 100 nM
IC50 (full-length human PHD2): < 100 nM
IC50 (full-length human PHD1): < 100 nM

CS(=O)(=O)c1ccc(-n2ncc(-c3ccc(F)cc3)c2O)nc1 [Compound 20, 4-(4-fluorophenyl)-1-(5-(methylsulfonyl)pyridin-2-yl)-1H-pyrazol-5-ol]
IC50 (full-length human PHD3): ≥ 10000 nM
IC50 (full-length human PHD2): < 100 nM
IC50 (full-length human PHD1): < 100 nM

CS(=O)(=O)c1ccc(-n2ncc(-c3ccc(C#N)cc3)c2O)nc1 [Compound 4, 4-(5-hydroxy-1-(5-(methylsulfonyl)pyridin-2-yl)-1H-pyrazol-4-yl)benzonitrile]
IC50 (full-length human PHD3): < 100 nM
IC50 (full-length human PHD2): < 100 nM
IC50 (full-length human PHD1): < 100 nM

CP(C)(=O)c1ccc(-n2ncc(-c3ccc(C#N)cc3)c2O)nc1 [Compound 30, 4-(1-(5-(dimethylphosphoryl)pyridin-2-yl)-5-hydroxy-1H-pyrazol-4-yl)benzonitrile]
IC50 (full-length human PHD2): < 100 nM
IC50 (full-length human PHD1): < 100 nM

N#Cc1ccc(-c2cnn(-c3ccc(-c4ccccn4)cn3)c2O)cc1 [Compound 13, 4-(1-([2,3′-bipyridin]-6′-yl)-5-hydroxy-1H-pyrazol-4-yl)benzonitrile]
IC50 (full-length human PHD2): 100 to 1000 nM
IC50 (full-length human PHD1): < 100 nM

N#Cc1ccc(-c2cnn(-c3ccc(NC(=O)C4CC4)cn3)c2O)cc1 [Compound 22, N-(6-(4-(4-cyanophenyl)-5-hydroxy-1H-pyrazol-1-yl)pyridin-3-yl)-cyclopropanecarboxamide]
IC50 (full-length human PHD3): 100 to 1000 nM
IC50 (full-length human PHD2): < 100 nM
IC50 (full-length human PHD1): < 100 nM

N#Cc1ccc(-c2cnn(-c3ccc(-c4nccs4)cn3)c2O)cc1 [Compound 12, 4-(5-hydroxy-1-(5-(thiazol-2-yl)pyridin-2-yl)-1H-pyrazol-4-yl)benzonitrile]
IC50 (full-length human PHD3): < 100 nM
IC50 (full-length human PHD2): < 100 nM
IC50 (full-length human PHD1): < 100 nM

CS(=O)(=O)c1ccc(-n2ncc(-c3ccc(Cl)cn3)c2O)nc1 [Compound 31, 4-(5-chloropyridin-2-yl)-1-(5-(methylsulfonyl)pyridin-2-yl)-1H-pyrazol-5-ol]
IC50 (full-length human PHD2): 100 to 1000 nM
IC50 (full-length human PHD1): 100 to 1000 nM

CS(=O)(=O)NC(=O)c1ccc(-n2ncc(-c3ccc(C#N)cc3)c2O)nc1 [Compound 27, 6-(4-(4-cyanophenyl)-5-hydroxy-1H-pyrazol-1-yl)-N-(methylsulfonyl) nicotinamide]
IC50 (full-length human PHD2): < 100 nM
IC50 (full-length human PHD1): < 100 nM

N#Cc1ccc(-c2cnn(-c3ccc(NC(=O)N4CCOCC4)cn3)c2O)cc1 [Compound 28, N-(6-(4-(4-cyanophenyl)-5-hydroxy-1H-pyrazol-1-yl)pyridin-3-yl)morpholine-4-carboxamide]
IC50 (full-length human PHD2): ≥ 10000 nM
IC50 (full-length human PHD1): ≥ 10000 nM

N#Cc1ccc(-c2cnn(-c3ccc(NC(=O)N4CCNCC4)cn3)c2O)cc1 [Compound 33, N-(6-(4-(4-cyanophenyl)-5-hydroxy-1H-pyrazol-1-yl)pyridin-3-yl)piperazine-1-carboxamide]
IC50 (full-length human PHD2): ≥ 10000 nM
IC50 (full-length human PHD1): ≥ 10000 nM

N#Cc1ccc(-c2cnn(-c3ccc(C(F)(F)F)cn3)c2O)cc1 [Compound 14, 4-(5-hydroxy-1-(5-(trifluoromethyl)pyridin-2-yl)-1H-pyrazol-4-yl)benzonitrile]
IC50 (full-length human PHD2): 1000 to 10000 nM
IC50 (full-length human PHD1): 100 to 1000 nM

CS(=O)(=O)c1ccc(-n2ncc(-c3cccc(C#N)c3)c2O)nc1 [Compound 5, 3-(5-hydroxy-1-(5-(methylsulfonyl)pyridin-2-yl)-1H-pyrazol-4-yl)benzonitrile]
IC50 (full-length human PHD2): < 100 nM
IC50 (full-length human PHD1): 100 to 1000 nM

N#Cc1ccc(-c2cnn(-c3ccc(Br)cn3)c2O)cc1 [Compound 21, 4-(1-(5-bromopyridin-2-yl)-5-hydroxy-1H-pyrazol-4-yl)benzonitrile]
IC50 (full-length human PHD2): 100 to 1000 nM
IC50 (full-length human PHD1): 100 to 1000 nM

N#Cc1ccc(-c2cnn(-c3ccc(C4CC4)cn3)c2O)cc1 [Compound 16, 4-(1-(5-cyclopropylpyridin-2-yl)-5-hydroxy-1H-pyrazol-4-yl)benzonitrile]
IC50 (full-length human PHD2): ≥ 10000 nM
IC50 (full-length human PHD1): 100 to 1000 nM

N#Cc1ccc(-c2cnn(-c3ccc(Cl)cn3)c2O)cc1 [Compound 18, 4-(1-(5-chloropyridin-2-yl)-5-hydroxy-1H-pyrazol-4-yl)benzonitrile]
IC50 (full-length human PHD2): 100 to 1000 nM
IC50 (full-length human PHD1): 100 to 1000 nM
